Key:
Experiment in all cases: Post-emergence herbicidal effect, greenhouse pot test
Assay type in all cases: in vivo
Settings in all cases: 0.32 kg of active substance per hectare, rated visually after about 3 weeks
Abutilon theophrasti = tested on: Abutilon theophrasti
Protocol: (§1) Seeds of monocotyledonous and dicotyledonous weed and crop plants are placed in sandy loam in wood-fiber pots, covered with soil and cultivated in a greenhouse under good growth conditions. 2 to 3 weeks after sowing, the test plants are treated at the one-leaf stage. The compounds (I) according to the invention, formulated in the form of wettable powders (WP), are then applied by spraying as aqueous suspension or emulsion at a water application rate of 600 I/ha (converted) with the addition of 0.2% of wetting agent to the green parts of the plants. After the test plants have been kept in the greenhouse under optimum growth conditions for about 3 weeks, the activity of the preparations is rated visually in comparison to untreated controls (herbicidal activity in percent (%): 100% activity=the plants have died, 0% activity=like control plants).

Alopecurus myosuroides = tested on: Alopecurus myosuroides
Protocol: as §1

Avena fatua = tested on: Avena fatua
Protocol: as §1

Echinochloa crus galli = tested on: Echinochloa crus galli
Protocol: as §1

Measured: herbicidal activity

COC(=O)Cc1c(C)nn(-c2cncn2C)c1-c1ccc(Cl)cc1 [Compound 5-1107, methyl [5-(4-chlorophenyl)-3-methyl-1-(1-methyl-1H-imidazol-5-yl)-1H-pyrazol-4-yl]acetate]
≥ 80%: all assays above
